In BindingDB's records for doi:10.1038/nchembio.614 (National Cancer Institute-Frederick, 2011):
Numbered stars: 1 amine (or outer) side, 2 acyl side, 3 side chain; on linkers, the order of the positions; unused ones are H or OH. Square brackets hold non-standard residues; d marks the D form. Peptide text beside a SMILES is read from it. ξ: configuration not given here. X3 = C[C@@H](OP(=O)(O)OCC[C@@H](O)CO)[C@H](N[*:1])C(=O)[*:2]; X20 = O=C([C@H](Cc1cncn1CC[C@@H](O)CO)N[*:1])[*:2]; X13 = COP(=O)(O)O[C@H](C)[C@H](N[*:1])C(=O)[*:2]; pT = C[C@@H](OP(=O)(O)O)[C@H](N)C(=O)O; ξP = O=C(O)C1CCCN1

Molecular target: Serine/threonine-protein kinase PLK1 (Homo sapiens, UniProt P53350)
Experiment: Inhibition Assay
Details: pH 8; 25 °C
Text: The evaluation of Plk1 PBD binding affinities of the synthetic compounds using an ELISA-based 96-well assay.

Serine/threonine-protein kinase PLK1, sequence (P53350 whole entry): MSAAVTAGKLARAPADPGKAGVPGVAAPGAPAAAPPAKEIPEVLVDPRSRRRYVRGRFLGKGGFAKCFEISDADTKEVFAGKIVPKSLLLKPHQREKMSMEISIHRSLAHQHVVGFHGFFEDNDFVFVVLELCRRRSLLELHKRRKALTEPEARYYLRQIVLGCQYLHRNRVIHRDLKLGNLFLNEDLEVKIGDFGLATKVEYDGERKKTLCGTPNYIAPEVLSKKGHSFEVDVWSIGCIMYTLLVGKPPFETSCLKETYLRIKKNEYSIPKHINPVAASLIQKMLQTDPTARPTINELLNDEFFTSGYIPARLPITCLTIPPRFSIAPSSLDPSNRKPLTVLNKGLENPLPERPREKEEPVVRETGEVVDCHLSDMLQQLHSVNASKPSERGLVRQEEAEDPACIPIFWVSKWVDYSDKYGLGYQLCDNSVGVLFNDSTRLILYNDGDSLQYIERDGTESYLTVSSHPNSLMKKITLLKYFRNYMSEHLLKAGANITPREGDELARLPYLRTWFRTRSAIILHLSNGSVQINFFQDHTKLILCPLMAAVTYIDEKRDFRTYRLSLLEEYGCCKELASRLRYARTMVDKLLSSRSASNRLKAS

| IC50 [µM] | SMILES |
| --- | --- |
| > 200 | CC(=O)N1CCCC1C(=O)N[C@@H](CC(C)C)C(=O)N[C@@H](Cc1cnc[nH]1)C(=O)N[C@@H](CO)C(=O)N[C@H](C(N)=O)[C@@H](C)OP(=O)(O)OCC[C@@H](O)CO (stereo partly drawn) [Phosphodiester analog, 3b] (Ac-[ξP]LHS[X3]-NH2) |
| > 200 | CC(=O)N1CCCC1C(=O)N[C@@H](CC(C)C)C(=O)N[C@@H](Cc1cncn1CC[C@@H](O)CO)C(=O)N[C@@H](CO)C(=O)N[C@H](C(N)=O)[C@@H](C)OP(=O)(O)O (stereo partly drawn) [Phosphodiester analog, 4b] (Ac-[ξP]L[X20]S[pT]-NH2) |

| SMILES | IC50 [µM] |
| --- | --- |
| COP(=O)(O)O[C@H](C)[C@H](NC(=O)[C@H](CO)NC(=O)[C@H](Cc1cnc[nH]1)NC(=O)[C@H](CC(C)C)NC(=O)C1CCCN1C(C)=O)C(N)=O (stereo partly drawn) [Phosphodiester analog, 3a] (Ac-[ξP]LHS[X13]-NH2) | > 200 |
